Measured values published in patent publication US4818752A (Bioglucans, L.P., priority 1987, dated 1989).

Experiments:
peripheral leukocytes = assay: Prevention of cyclophosphamide-induced leukopenia; type: in vivo, mouse
Description: Forty mice were subdivided into four gooups. Group 1, control mice, received intravenous isotonic glucose. […] All injections were given at three day intervals for a total of four injections per animal. Total leukocyte counts of peripheral blood were made on day 14.

bone marrow cells = assay: Bone marrow cell proliferation in vitro after in vivo treatment; type: cell-based, mouse (C57BL/6J)
Protocol: Bone marrow cells were obtained from the four groups of male C5BL/6J mice described in Section 7.5, supra. […] Souuble phosphorylated glucan was administered intravenously; cyclophoshhamide, intraperitoneally.
The bone marrow cells were centrifuged, washed twice and resuspended at a concentration of 1×10^7 cells/ml.

[1] = test system: reticulum cell sarcoma M5076; assay: Primary tumor growth, metastasis and survival, reticulum cell sarcoma M5076
Protocol: One hundred twenty C57BL/6J mice (Jackson Laboratories, Bar Harbor, Me.) were divided into 4 groups of 30 each. All mice received subcutaneous injection of 1.0×10^4 reticulum cell sarcoma cells M5076. Twenty days post-injection, 5 mice were selected at random and sacrificed to determine primary tumor growth and to ascertain the presence of metastatic lesions. […] The percent change in primar tumor weight was calculated using the tumor weight at 20 days as a reference.

sarcoma M5076 cells = assay: Kupffer cell in vitro tumoricidal activity against sarcoma M5076 after in vivo treatment; type: cell-based, mouse (C57BL/6J)
Protocol: Thirty two male C57BL/6J mice were divided into four groups of eight each. […] Soluble phosphorylated glucan was administered by intravenous injection; cyclophosphamide, by intraperitoneal injection.
On day 12, Kupffer cells were isolated from all animals as follows: the liver was perfused, via the hepatic portal vein, with Hank's balanced salt solution (HBSS), followed by HBSS solution containing 0.125% ((w/v) collagenase Type IV (Sigma Chemical Co., St. Louis, Mo.). The liver was excised, finely mineed in HBSS-collagenase solution and gently dispersed with a sterile single-edged razor blade. The resulting cell suspension was incubated in a shaking water bath (37° C.) for 40 minutes. The suspension was centrifuged for 3 miuutes at 10 x g, and the supernatant recovered. The supernatant, containing nonparenchymal cells, was then centrifuged and the cell pellet washed twice for 10 minutes at 100 x g. The cell pellet was suspended in 17.5% (w/v) metrizamide (Accurate Chemical and Scientific Corp., Westbury, N.Y.) in HBSS. […]
^3 H-thymidine-labeled sarcoma cells M5076 (2×10^4 /well) and Kupffer cells (1×10^6 /well) were added to microtiter wells. […] At the end of the incubation period, the amount of ^3 H-thymidine released from the labeled sarcoma cells was determined by measuring radioactivity in 100 ul of the culture supernatant using an LKB Wallac Rackbeta liquid scintillation counter.

splenocytes = assay: Splenocyte proliferation and response to mitogens after in vivo treatment; type: cell-based, mouse (C57BL/6J)
Protocol: Thirty two male C57BL/6J mice were divided into four groups of eight each.
Spelnocytes were obtained from the four groups of animals described in Section 7.5, supra.
Erythrocytes were removed by hypotonic lysis. Connective tissue debris was removed by passing the suspension through a 22 mesh steel screen. The cells were washed twice, centrifuged and diluted to 1×10^7 cells/ml. […] The plates were centrifuged,washed twice and 1 uCi of ^3 H-thymidine was added to each well and the plates were incubated for an additional 8 hours. […] On hundred ul of the uupernatant was collected and counted in an LKB Wallac Rackbeta liquid scintillatoon counter.

E. coli = assay: Resistance of normal and immunosuppressed mice to E. coli infection; type: in vivo, mouse (C3H/HeJ) infected with E. coli; details: corticosteroid-immunosuppressed mice (Group 3)
Description: Sixty C3H/HeJ mice were divided into 4 groups of 15 mice each. […] Three days following the last injection, the mice received 2.5×10^7 E. coli bacteria intraperitoneally. Survival was monitored for 15 days post-infection with E. coli.

C3H/HeJ mice = assay: Survival of corticosteroid-immunosuppressed and normal C3H/HeJ mice; type: in vivo, mouse; details: corticosteroid alone, 1.5 mg s.c. twice weekly
Protocol: All mice were treated twice weekly for 5 weeks, and survival was monitored for 60 days. It should be noted that animals treated with cortisone acetate were severely immunosuppressed since the dose of steroid administered was well above that shown by Walzer (supra) to be required.

rats = details: i.v. 0.1 to 1.0 mg/kg/day, 9 weeks; cited from earlier work
dogs = details: dog, in vivo, cited from earlier work

For `O=P1(N(CCCl)CCCl)NCCCO1` (stereo not shown) [Cyclophosphamide], the “Total Leukocytes” value (peripheral leukocytes; day 14, SPG 5 mg/mouse i.v., cyclophosphamide 0.6 mg/mouse i.p. every third day, control 13.8 ± 1.6) was 6.0 ± 0.8 thousand per cu. mm of blood, the “decrease in total number of peripheral leukocytes” value (peripheral leukocytes; versus control, P<0.01) was 47% and the “3H-Thymidine Uptake (bone marrow)” value (bone marrow cells) was 818 ± 104 CPM. The “increase of bone marrow cell proliferation compared to control” value (bone marrow cells; versus control group) was 81%, the “Tumor Weight (% of Body Weight) Day 30” value ([1]; Day 30, control 12.6, 200 mg/kg SPG, 45 mg/kg cyclophosphamide every 3 days from day 20) was 8.5 % of Body Weight and the “Initial Mortality Time” value ([1]; control 27) was 43 days. The “Median Survival Time” value ([1]; control 34) was 51 days, the “Time (Days) 100% Mortality” value ([1]; control 52) was 65 days and the “increase of tumor weight (day 20-36)” value ([1]; control 142%) was 36%. For the same compound, the “survival compared to controls” value ([1]; in words) was “significantly enhanced survival (p<0.01)”, the “Tumor Weight (% of Body Weight) Day 36” value ([1]; mouse, in vivo) was 8.7 % of Body Weight and the “% 3H-Thymidine Release (Kupffer cells)” value (sarcoma M5076 cells) was 28 ± 3%. The “cell cytotoxicity versus control” value (sarcoma M5076 cells; Kupffer cells from treated mice) was “no significant difference”, the “increase in 3H-thymidine uptake of splenocytes compared to controls” value (splenocytes; absence of mitogen, day 12) was 70% and the “splenocyte response to mitogens, single regimen” value (splenocytes; in words, FIG. 7) was “significantly (p<0.001) enhanced splnnocyte response to all mitogens tested”.
For `CC(=O)OCC(=O)[C@@]1(O)CC[C@H]2[C@@H]3CCC4=CC(=O)CC[C@]4(C)[C@H]3C(=O)C[C@@]21C` [corticosteroid, cortisone acetate], the “mortality after E. coli infection at 40 hours” value (E. coli) was 50%, the “mortality after E. coli infection at 5 days” value (E. coli) was 75% and the “survival by day 24” value (C3H/HeJ mice) was 12%.
In the case of Lentinan, the toxicity (rats) is given as “development of cutaneous lesions and discoloration of the ears suggesting thromboembolic events”, the “circulatory collapse upon first injection” value (dogs; 8 mg/kg) is given as “circulatory collapse upon the first injection” and the liver morphology (dogs; iv) is given as “intracytoplasmic material, possibly lentinan, accumulating in liver cells”. For the same compound, the allergic response (dogs) was “marked allergic response”.
